Values quoted from earlier work, collected in US20090275559A1, “Chronotherapeutic formulations of modified-release calcium channel blocker anti-hypertensive drugs in combination with other anti-hypertensive drugs for 24-hour optimal treatment of hypertension, nocturnal hypertension, and/or hypertension with angina” (Blue Note Pharmaceuticals, Inc., priority 2008, published 2009).

Key:
[1] = extensive first-pass metabolism in the liver
[2] = low pHs (0.1 N HCl)

| SMILES | plasma half-life [1] [h] | water solubility [2] |
| --- | --- | --- |
| COc1ccc([C@@H]2Sc3ccccc3N(CCN(C)C)C(=O)[C@@H]2OC(C)=O)cc1 [diltiazem] | 2 to 6 |  |
| CCCCC1=NC2(CCCC2)C(=O)N1Cc1ccc(-c2ccccc2-c2nnn[nH]2)cc1 [Irbesartan] |  | low |
